Experimental data taken from US8575158B2, “1-phenyl-substituted heterocyclyl derivatives and their use as prostaglandin D2 receptor modulators” (Actelion Pharmaceuticals Ltd., priority 2010, dated 2013).

target: T1, hCRTH2 receptor (Homo sapiens, UniProt Q9Y5Y4); assay: Radioligand displacement assay (3H-PGD2) on hCRTH2 receptor membranes; assay type: binding; conditions: antagonistic activity, 3H-PGD2 radioligand displacement, HEK293-hCRTH2 membranes
T1 construct: expressed in transfected cells; host or cells: HEK293
T1 sequence (Q9Y5Y4 1-395): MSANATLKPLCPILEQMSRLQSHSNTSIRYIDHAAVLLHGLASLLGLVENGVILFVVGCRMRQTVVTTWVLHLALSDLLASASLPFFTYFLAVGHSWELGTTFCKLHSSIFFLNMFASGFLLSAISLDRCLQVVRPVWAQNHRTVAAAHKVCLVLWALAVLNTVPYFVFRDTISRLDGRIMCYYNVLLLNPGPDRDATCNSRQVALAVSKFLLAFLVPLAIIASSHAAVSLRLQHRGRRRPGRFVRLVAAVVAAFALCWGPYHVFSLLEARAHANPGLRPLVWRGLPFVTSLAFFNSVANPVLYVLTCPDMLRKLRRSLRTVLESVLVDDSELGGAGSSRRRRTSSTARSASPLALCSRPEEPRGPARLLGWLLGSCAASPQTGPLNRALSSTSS

SMILES | IC50 [nM]
O=C(O)COc1ccc(Cl)cc1[C@@H]1c2ccc(F)cc2CCN1C(=O)OCc1nccs1 [Example 324, (S)-1-(2-Carboxymethoxy-5-chloro-phenyl)-6-fluoro-3,4-dihydro-1H-isoquinoline-2-carboxylic acid thiazol-2-ylmethyl ester] | 6.26
Cc1ncsc1CCOC(=O)N1CCc2cc(F)ccc2[C@H]1c1cc(Cl)ccc1OCC(=O)O [Example 325, (S)-1-(2-Carboxymethoxy-5-chloro-phenyl)-6-fluoro-3,4-dihydro-1H-isoquinoline-2-carboxylic acid 2-(4-methyl-thiazol-5-yl)-ethyl ester] | 21.3
Cc1csc(COC(=O)N2CCc3cc(F)ccc3[C@H]2c2cc(Cl)ccc2OCC(=O)O)n1 [Example 327, (S)-1-(2-Carboxymethoxy-5-chloro-phenyl)-6-fluoro-3,4-dihydro-1H-isoquinoline-2-carboxylic acid 4-methyl-thiazol-2-ylmethyl ester] | 3.38
Cc1ncc(COC(=O)N2CCc3cc(F)ccc3[C@H]2c2cc(Cl)ccc2OCC(=O)O)s1 [Example 328, (S)-1-(2-Carboxymethoxy-5-chloro-phenyl)-6-fluoro-3,4-dihydro-1H-isoquinoline-2-carboxylic acid 2-methyl-thiazol-5-ylmethyl ester] | 3.2
Cc1nc(COC(=O)N2CCc3cc(F)ccc3[C@H]2c2cc(Cl)ccc2OCC(=O)O)cs1 [Example 329, (S)-1-(2-Carboxymethoxy-5-chloro-phenyl)-6-fluoro-3,4-dihydro-1H-isoquinoline-2-carboxylic acid 2-methyl-thiazol-4-ylmethyl ester] | 5.9
Cc1cc(COC(=O)N2CCc3cc(F)ccc3[C@H]2c2cc(Cl)ccc2OCC(=O)O)on1 [Example 330, (S)-1-(2-Carboxymethoxy-5-chloro-phenyl)-6-fluoro-3,4-dihydro-1H-isoquinoline-2-carboxylic acid 3-methyl-isoxazol-5-ylmethyl ester] | 10.6
Cc1conc1COC(=O)N1CCc2cc(F)ccc2[C@H]1c1cc(Cl)ccc1OCC(=O)O [Example 331, (S)-1-(2-Carboxymethoxy-5-chloro-phenyl)-6-fluoro-3,4-dihydro-1H-isoquinoline-2-carboxylic acid 4-methyl-isoxazol-3-ylmethyl ester] | 7.29
O=C(O)COc1ccc(Cl)cc1[C@@H]1c2ccc(F)cc2CCN1C(=O)OCc1cnccn1 [Example 332, (S)-1-(2-Carboxymethoxy-5-chloro-phenyl)-6-fluoro-3,4-dihydro-1H-isoquinoline-2-carboxylic acid pyrazin-2-ylmethyl ester] | 7.65
O=C(O)COc1ccc(Cl)cc1[C@@H]1c2ccc(F)cc2CCN1C(=O)OCc1ccncn1 [Example 333, (S)-1-(2-Carboxymethoxy-5-chloro-phenyl)-6-fluoro-3,4-dihydro-1H-isoquinoline-2-carboxylic acid pyrimidin-4-ylmethyl ester] | 45.7
O=C(O)COc1ccc(Cl)cc1[C@@H]1c2ccc(F)cc2CCN1C(=O)OCc1cncnc1 [Example 334, (S)-1-(2-Carboxymethoxy-5-chloro-phenyl)-6-fluoro-3,4-dihydro-1H-isoquinoline-2-carboxylic acid pyrimidin-5-ylmethyl ester] | 4.95
O=C(O)COc1ccc(Cl)cc1[C@@H]1c2ccc(F)cc2CCN1C(=O)OCCc1ccccc1 [Example 335, (S)-1-(2-Carboxymethoxy-5-chloro-phenyl)-6-fluoro-3,4-dihydro-1H-isoquinoline-2-carboxylic acid phenethyl ester] | 13.3
O=C(O)COc1ccc(Cl)cc1[C@@H]1c2ccc(F)cc2CCN1C(=O)OCCc1cccc(F)c1 [Example 336, (S)-1-(2-Carboxymethoxy-5-chloro-phenyl)-6-fluoro-3,4-dihydro-1H-isoquinoline-2-carboxylic acid 2-(3-fluoro-phenyl)-ethyl ester] | 11.5
Cn1nccc1COC(=O)N1CCc2cc(F)ccc2[C@H]1c1cc(Cl)ccc1OCC(=O)O [Example 337, (S)-1-(2-Carboxymethoxy-5-chloro-phenyl)-6-fluoro-3,4-dihydro-1H-isoquinoline-2-carboxylic acid 2-methyl-2H-pyrazol-3-ylmethyl ester] | 3.61
CCn1nc(C)cc1CCOC(=O)N1CCc2cc(F)ccc2[C@H]1c1cc(Cl)ccc1OCC(=O)O [Example 339, (S)-1-(2-Carboxymethoxy-5-chloro-phenyl)-6-fluoro-3,4-dihydro-1H-isoquinoline-2-carboxylic acid 2-(2-ethyl-5-methyl-2H-pyrazol-3-yl)-ethyl ester] | 11.5
Cn1cncc1COC(=O)N1CCc2cc(F)ccc2[C@H]1c1cc(Cl)ccc1OCC(=O)O [Example 340, (S)-1-(2-Carboxymethoxy-5-chloro-phenyl)-6-fluoro-3,4-dihydro-1H-isoquinoline-2-carboxylic acid 3-methyl-3H-imidazol-4-ylmethyl ester] | 5.17
Cc1cc(C)n(CCOC(=O)N2CCc3cc(F)ccc3[C@H]2c2cc(Cl)ccc2OCC(=O)O)n1 [Example 341, (S)-1-(2-Carboxymethoxy-5-chloro-phenyl)-6-fluoro-3,4-dihydro-1H-isoquinoline-2-carboxylic acid 2-(3,5-dimethyl-pyrazol-1-yl)-ethyl ester] | 11.1

More lines, now with the values ahead:

IC50 [nM] | SMILES
2.37 | Cc1cc(COC(=O)N2CCc3c(ccc(F)c3F)[C@H]2c2cc(Cl)ccc2OCC(=O)O)n(C)n1 [Example 313, (S)-1-(2-Carboxymethoxy-5-chloro-phenyl)-5,6-difluoro-3,4-dihydro-1H-isoquinoline-2-carboxylic acid 2,5-dimethyl-2H-pyrazol-3-ylmethyl ester]
9.8 | CCn1nc(C)cc1CCOC(=O)N1CCc2c(ccc(F)c2F)[C@H]1c1cc(Cl)ccc1OCC(=O)O [Example 314, (S)-1-(2-Carboxymethoxy-5-chloro-phenyl)-5,6-difluoro-3,4-dihydro-1H-isoquinoline-2-carboxylic acid 2-(2-ethyl-5-methyl-2H-pyrazol-3-yl)-ethyl ester]
2.82 | Cn1cncc1COC(=O)N1CCc2c(ccc(F)c2F)[C@H]1c1cc(Cl)ccc1OCC(=O)O [Example 315, (S)-1-(2-Carboxymethoxy-5-chloro-phenyl)-5,6-difluoro-3,4-dihydro-1H-isoquinoline-2-carboxylic acid 3-methyl-3H-imidazol-4-ylmethyl ester]
5.07 | Cc1cc(C)n(CCOC(=O)N2CCc3c(ccc(F)c3F)[C@H]2c2cc(Cl)ccc2OCC(=O)O)n1 [Example 316, (S)-1-(2-Carboxymethoxy-5-chloro-phenyl)-5,6-difluoro-3,4-dihydro-1H-isoquinoline-2-carboxylic acid 2-(3,5-dimethyl-pyrazol-1-yl)-ethyl ester]
14.7 | Cc1cnn(COC(=O)N2CCc3c(ccc(F)c3F)[C@H]2c2cc(Cl)ccc2OCC(=O)O)c1 [Example 317, (S)-1-(2-Carboxymethoxy-5-chloro-phenyl)-5,6-difluoro-3,4-dihydro-1H-isoquinoline-2-carboxylic acid 4-methyl-pyrazol-1-ylmethyl ester]
138 | Cc1nc2ccccc2n1CCOC(=O)N1CCc2c(ccc(F)c2F)[C@H]1c1cc(Cl)ccc1OCC(=O)O [Example 318]
1.44 | O=C(O)COc1ccc(Cl)cc1[C@@H]1c2ccc(F)c(F)c2CCN1C(=O)OCc1nc2ccccc2s1 [Example 319, (S)-1-(2-Carboxymethoxy-5-chloro-phenyl)-5,6-difluoro-3,4-dihydro-1H-isoquinoline-2-carboxylic acid benzothiazol-2-ylmethyl ester]
0.52 | O=C(O)COc1ccc(Cl)cc1[C@@H]1c2ccc(F)c(F)c2CCN1C(=O)OCc1nc2ccccc2o1 [Example 320, (S)-1-(2-Carboxymethoxy-5-chloro-phenyl)-5,6-difluoro-3,4-dihydro-1H-isoquinoline-2-carboxylic acid benzooxazol-2-ylmethyl ester]
1.84 | Cn1nc(COC(=O)N2CCc3c(ccc(F)c3F)[C@H]2c2cc(Cl)ccc2OCC(=O)O)c2ccccc21 [Example 321, (S)-1-(2-Carboxymethoxy-5-chloro-phenyl)-5,6-difluoro-3,4-dihydro-1H-isoquinoline-2-carboxylic acid 1-methyl-1H-indazol-3-ylmethyl ester]
0.53 | O=C(O)COc1ccc(Cl)cc1[C@@H]1c2ccc(F)c(F)c2CCN1C(=O)OCn1ncc2ccccc21 [Example 322, (S)-1-(2-Carboxymethoxy-5-chloro-phenyl)-5,6-difluoro-3,4-dihydro-1H-isoquinoline-2-carboxylic acid indazol-1-ylmethyl ester]
1.2 | O=C(O)COc1ccc(Cl)cc1[C@@H]1c2ccc(F)c(F)c2CCN1C(=O)OCc1noc2ccccc12 [Example 323, (S)-1-(2-Carboxymethoxy-5-chloro-phenyl)-5,6-difluoro-3,4-dihydro-1H-isoquinoline-2-carboxylic acid benzo[d]isoxazol-3-ylmethyl ester]
8.67 | Cc1cnc(COC(=O)N2CCc3cc(F)ccc3[C@H]2c2cc(Cl)ccc2OCC(=O)O)s1 [Example 326, (S)-1-(2-Carboxymethoxy-5-chloro-phenyl)-6-fluoro-3,4-dihydro-1H-isoquinoline-2-carboxylic acid 5-methyl-thiazol-2-ylmethyl ester]
3.13 | Cc1cc(COC(=O)N2CCc3cc(F)ccc3[C@H]2c2cc(Cl)ccc2OCC(=O)O)n(C)n1 [Example 338, (S)-1-(2-Carboxymethoxy-5-chloro-phenyl)-6-fluoro-3,4-dihydro-1H-isoquinoline-2-carboxylic acid 2,5-dimethyl-2H-pyrazol-3-ylmethyl ester]
